# Measurements reported in patent US7446125B2, “Derivatives of nitroproline compounds, processes of manufacture and uses in the treatment of integrin mediated disorders” (Universidad del Pais Vasco, priority 2005, dated 2008).
# What was measured:
# VLA-4 [1] = molecular target: T1, VLA-4 (Mus musculus, UniProt P09055+Q00651); assay: B16M (MB16) melanoma cell adhesion to primary cultured hepatic sinusoidal endothelial (HSE) cells; format: cell-based, murine; settings: B16M cells preincubated with compound, 50 μg/1×10^6 MB16 cells; TNF-alpha-treated HSE or H2O2-treated B16M cells; FIG. 6
# T1 construct: The tumor used is the B16F10 subline of MB16, the VLA-4 expression of which is constitutive; endogenous in cells; host or cells: B16F10 (MB16/B16M) murine melanoma cells; VCAM-1 on primary mouse HSE cells
# Protocol: The tumor used is the B16F10 subline of MB16, the VLA-4 expression of which is constitutive.
# The MB16 tumor cells (subline B16F10) are cultured in incubator at 37° C., with 5% CO2 atmosphere, in DMEM medium (Dulbecco's modified Eagle's medium), adjusted to pH 7.4 and supplemented with penicillin (100 U/ml), streptomycin (100 μg/ml) and 5% fetal bovine serum. The cells are maintained and subcultured according to a previously-described method (Vidal-Vanaclocha et al. Cancer Research, 1994, 54, 2667).
# The hepatic sinusoidal cells are isolated from C57BU6J mice (males, age 6-8 weeks) supplied by IFFA Credo (L'Arbreole, France). For their purification and identification, the previously-described protocol is employed (Vidal-Vanaclocha et al. Hepatology, 1993, 18, 328-339). The primary HSE cell cultures are obtained by seeding the cells on a Type I collagen substrate (Sigma Chemicals Co, St Louis, Mo.) in the presence of DMEM, supplementing with penicillin (100 U/ml), streptomycin (100 μg/ml) and 10% fetal bovine serum, at 37° C. in 5% CO2 atmosphere.
# The endothelial cells are isolated 24 hours prior to the adhesion test and are seeded on 24-well plate, maintaining them a minimum of 4 hours in free serum medium before incubating them with DMEM in the presence or not of 10 ng/ml TNF-α for 6 hours. The B16 cells are marked with 40 μg/ml of the BCECF-AM fluorescent probe (carboxyfluorescein, 2′,7′-bis-(2-carboxy-etyl)-5-(6)carboxyfluorescein aminoxymethyl ester), supplied by Molecular Probes Inc. (Oregon, USA). Afterward, a washing with DMEM medium without serum is performed to remove the excess flurorchromium, and the compounds of general formula I are incubated at 37° C. for 15 minutes at the concentration of 50 μg/1×10^6 MB16 cells. This is followed by two washings, the number of visible cells being calculated by means of the trypan blue dye exclusion test, and they are resuspended to a concentration of 2×10^5 cells/ml. One (1) ml of the MB16 cell suspension is added to each well on the primary HSE cell culture plate, and the co-cultures are incubated at 37° C. for 8 minutes. The percentage of cellular adhesion is calculated by means of a previously-described fluorescence measurement system (Vidal-Vanaclocha et al. Cancer Research, 1994, 54, 2667).
# Next, the potential VLA-4 antagonism of compounds 11 was tested through a previously established model on VLA-4NCAM-1-interaction-dependent B16M cell adhesion to primary cultured hepatic sinusoidal endothelial (HSE) cells in vitro.
# VLA-4 [2] = molecular target: T1, VLA-4; assay: B16M (MB16) cell adhesion to immobilized recombinant human VCAM-1; format: cell-based, murine; settings: IL-1b (interleukin-1b)-treated melanoma cells; FIG. 3
# B16M cells [3] = assay: Hepatic metastasis of intrasplenically injected, compound-pretreated B16M cells; format: in vivo, C57BU6J mice; settings: mice intrasplenically injected with pretreated B16M cells relative to untreated cells; P<0.01; FIG. 7
# Protocol: A description is provided in following of the effect of the le compound on the metastatic capacity of MB16 in in-vivo tests. For this purpose, the MB16 cells treated with le are inoculated intrasplenically in C57BU6J mice (3×10^5 viable cells per animal, resuspended in endotoxin-free sterile saline solution), and the microvascular retention within the first 18 hours and their ability to develop metastasis on day 12 following the tumor injection is determined.
# (§1) B16M cells were cultured for 24 hours in the presence 50 μg/ml of compound 11d, or […] anti-murine VLA-4 antibody. Cultured cells were fixed and processed for the immunohistochemical detection of Ki-67 antigen expression. Next, a computed-aid microscopic image analysis system was used to discriminate stained cells (brown nuclei) and calculate the average number of Ki-67 antigen-expressing cells per 1×10^4 cells. The results are the mean±SD of 6 independent fields, from 3 different experiments (n=18).
# B16M cells [4] = assay: Cell viability, cytotoxicity, intracellular oxidative metabolism and proliferation rate of treated melanoma cells; format: cell-based, murine
# Protocol: as §1
# Solubility in water = format: physicochemical; settings: compared with 11f
# [5] = test system: VEGF production by soluble VCAM-1-stimulated B16M cells; assay: VEGF production by soluble VCAM-1-treated B16M cells in vitro; format: cell-based, murine; settings: soluble VCAM-1-stimulated cells; FIG. 4
# T1 sequence (Q00651 41-1039): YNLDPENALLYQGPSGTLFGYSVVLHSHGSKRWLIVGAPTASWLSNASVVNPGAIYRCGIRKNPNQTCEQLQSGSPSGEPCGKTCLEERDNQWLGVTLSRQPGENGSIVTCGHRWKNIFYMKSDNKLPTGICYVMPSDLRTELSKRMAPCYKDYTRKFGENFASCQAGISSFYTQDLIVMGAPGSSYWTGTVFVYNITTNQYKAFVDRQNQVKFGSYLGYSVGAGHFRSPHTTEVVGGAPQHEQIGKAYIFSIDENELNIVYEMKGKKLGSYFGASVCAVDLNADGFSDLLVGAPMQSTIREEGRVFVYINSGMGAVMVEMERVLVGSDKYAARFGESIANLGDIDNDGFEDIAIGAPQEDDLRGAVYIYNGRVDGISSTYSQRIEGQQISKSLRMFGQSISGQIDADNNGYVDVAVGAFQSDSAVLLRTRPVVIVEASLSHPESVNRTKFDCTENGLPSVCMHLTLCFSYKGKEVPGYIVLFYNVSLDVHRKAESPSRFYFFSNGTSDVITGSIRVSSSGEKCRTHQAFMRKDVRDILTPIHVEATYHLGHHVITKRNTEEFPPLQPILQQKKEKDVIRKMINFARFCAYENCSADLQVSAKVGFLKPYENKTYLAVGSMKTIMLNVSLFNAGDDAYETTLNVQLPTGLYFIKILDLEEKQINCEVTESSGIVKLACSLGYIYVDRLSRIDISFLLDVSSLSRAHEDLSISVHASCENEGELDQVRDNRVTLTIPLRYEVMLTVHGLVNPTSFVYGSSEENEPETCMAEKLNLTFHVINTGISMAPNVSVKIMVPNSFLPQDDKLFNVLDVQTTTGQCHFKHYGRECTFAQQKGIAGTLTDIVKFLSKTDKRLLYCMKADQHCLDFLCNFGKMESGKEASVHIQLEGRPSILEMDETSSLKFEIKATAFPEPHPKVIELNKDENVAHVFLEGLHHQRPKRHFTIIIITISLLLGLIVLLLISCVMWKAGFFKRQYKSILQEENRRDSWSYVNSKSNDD
# T1 sequence (P09055 21-798): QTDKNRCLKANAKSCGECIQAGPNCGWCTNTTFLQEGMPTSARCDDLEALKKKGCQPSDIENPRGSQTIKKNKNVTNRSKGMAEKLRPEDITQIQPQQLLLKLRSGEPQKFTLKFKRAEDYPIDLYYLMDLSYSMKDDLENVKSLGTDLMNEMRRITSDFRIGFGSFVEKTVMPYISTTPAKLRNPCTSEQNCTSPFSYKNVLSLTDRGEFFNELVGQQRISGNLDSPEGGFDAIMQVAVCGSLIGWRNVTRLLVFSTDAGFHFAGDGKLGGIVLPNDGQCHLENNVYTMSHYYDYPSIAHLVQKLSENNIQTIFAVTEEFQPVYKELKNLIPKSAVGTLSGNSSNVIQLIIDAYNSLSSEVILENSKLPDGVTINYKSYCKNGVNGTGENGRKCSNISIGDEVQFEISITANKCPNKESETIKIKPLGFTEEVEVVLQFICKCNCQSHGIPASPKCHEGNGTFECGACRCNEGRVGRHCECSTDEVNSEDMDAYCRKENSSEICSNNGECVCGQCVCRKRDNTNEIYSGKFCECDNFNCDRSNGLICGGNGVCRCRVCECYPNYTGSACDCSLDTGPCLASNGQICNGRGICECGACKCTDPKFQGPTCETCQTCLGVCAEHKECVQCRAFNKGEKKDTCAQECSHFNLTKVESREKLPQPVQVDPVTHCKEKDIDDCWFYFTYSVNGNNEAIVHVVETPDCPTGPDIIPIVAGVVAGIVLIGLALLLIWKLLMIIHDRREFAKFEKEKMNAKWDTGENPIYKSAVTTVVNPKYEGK
compound,measurement,setting,value
"CC(C)[C@H](OCc1ccccc1)[C@H]1[C@H]([N+](=O)[O-])[C@H](C(C)(C)C)N[C@@H]1C(=O)NCC(=O)O [Compound 11b, 2-[(2S,3R,4S,5S)-5-tert-Butyl-3-[(S)-1-(benzyloxy)-2-methylpropyl]-4-nitropyrrolidine-2-carboxamido]acetic acid]",antiadhesive activity (B16M cell adhesion to HSE cells),VLA-4 [1],did not show any significant antiadhesive activity
same,melting point,,119 to 120 °C
"CC[C@H](C)[C@H](OCc1ccccc1)[C@H]1[C@H]([N+](=O)[O-])[C@H](c2ccccc2)N[C@@H]1C(=O)NCC(=O)O [Compound 11d, 2-[(2S,3R,4S,5S)-3-[(1S,2S)-1-(Benzyloxy)-2-methylbutyl]-4-nitro-5-phenyl-pyrrolidine-2-carboxamido]acetic acid]",adhesion of melanoma cells to immobilized VCAM-1,VLA-4 [2],completely abrogated
same,decrease of metastasis density,B16M cells [3],60%
same,decrease of metastasis volume,B16M cells [3],95%
same,antiadhesive activity (B16M cell adhesion to HSE cells),VLA-4 [1],comparable antiadhesive activity to monoclonal antibodies against murine VLA-4
same,"cell viability and cytotoxicity, intracellular oxidative metabolism, cell-proliferation rates",B16M cells [4],excluded that antimetastatic effects of 11d compound may have been caused by indirect effects on cell functions
same,solubility in water,Solubility in water,higher solubility in water
same,VEGF production induced by soluble VCAM-1,[5],prevented
"CC(C)[C@H](OCc1c(F)cccc1F)[C@H]1[C@H]([N+](=O)[O-])[C@H](c2ccccc2)N[C@@H]1C(=O)NCC(=O)O [Compound 11e, 2-[(2S,3R,4S,5S)-3-[(S)-1-(2,6-Difluorobenzyloxy)-2-methylpropyl]-4-nitro-5-phenyl-pyrrolidine-2-carboxamido]acetic acid]",antiadhesive activity (B16M cell adhesion to HSE cells),VLA-4 [1],almost inactive
"CC[C@H](C)[C@H](OCc1ccccc1)[C@H]1[C@H]([N+](=O)[O-])[C@H](C2CCCCC2)N[C@@H]1C(=O)NCC(=O)O [Compound 11f, 2-[(2S,3R,4S,5S)-3-[(1S,2S)-1-(benzyloxy)-2-methylbutyl]-5-cyclohexyl-4-nitropyrrol-idine-2-carboxamido]acetic acid]",antiadhesive activity (B16M cell adhesion to HSE cells),VLA-4 [1],best activity in vitro
"CC[C@H](C)[C@H](OCc1ccccc1)[C@H]1[C@H]([N+](=O)[O-])[C@H](C2CC2)N[C@@H]1C(=O)NCC(=O)O [Compound 11h, 2-[(2S,3R,4S,5S)-3-[(1S,2S)-1-(benzyloxy)-2-methylbutyl]-5-cyclopropyl-4-nitropyrrol-idine-2-carboxamido]acetic acid]",antiadhesive activity (B16M cell adhesion to HSE cells),VLA-4 [1],did not show any significant antiadhesive activity
"CC[C@H](C)[C@H](OCc1ccccc1)[C@@H]1[C@H]([N+](=O)[O-])[C@H](c2ccccc2)N[C@]1(C)C(=O)NCC(=O)O [Compound 11j, 2-[(2S,3R,4S,5S)-3-[(1S,2S)-1-(Benzyloxy)-2-methylbutyl]-2-methyl-4-nitro-5-phenyl-pyrrolidine-2-carboxamido]acetic acid]",antiadhesive activity (B16M cell adhesion to HSE cells),VLA-4 [1],did not result in a significant loss of activity
